Laboratory results taken from the NIST ThermoML archive (doi:10.1016/j.jct.2008.01.010).
Values joined by “and” are separate entries in the source; they are usually repeats but may differ in a detail not shown here. Equal values may be shown once.

Conditions: Crystal; for mass density: 298.15 K, 101.33 kPa, Pycnometric method; for vapor or sublimation pressure: Calculated from knudsen effusion weight loss

Oc1nncc2ccccc12 [1(2H)-phthalazinone]
Conditions | mass density [kg/m3] | vapor or sublimation pressure
– | 1290 | –
348.12 K | – | 0.0001427 kPa and 0.0001428 kPa and 0.0001398 kPa
350.14 K | – | 0.0001731 kPa and 0.0001683 kPa and 0.0001668 kPa
352.15 K | – | 0.0002116 kPa and 0.0002079 kPa
354.18 K | – | 0.0002587 kPa and 0.0002577 kPa and 0.0002582 kPa
356.2 K | – | 0.0003206 kPa and 0.0003187 kPa and 0.0003134 kPa
358.15 K | – | 0.0003799 kPa and 0.0003853 kPa and 0.0003771 kPa
360.2 K | – | 0.0004783 kPa and 0.0004761 kPa and 0.0004538 kPa
362.14 K | – | 0.0005802 kPa and 0.0005665 kPa and 0.0005564 kPa
364.18 K | – | 0.0006992 kPa and 0.0006815 kPa and 0.000676 kPa
366.14 K | – | 0.0008356 kPa and 0.0008316 kPa and 0.000817 kPa
368.13 K | – | 0.0009681 kPa and 0.001004 kPa and 0.0009903 kPa

O=c1[nH][nH]c(=O)c2ccccc12 [2,3-dihydro-1,4-phthalazinedione]
Conditions | mass density [kg/m3] | vapor or sublimation pressure
– | 1390 | –
428.18 K | – | 0.0001501 kPa and 0.00015 kPa and 0.0001468 kPa
430.16 K | – | 0.0001786 kPa and 0.0001816 kPa and 0.0001711 kPa
432.24 K | – | 0.0002109 kPa and 0.000215 kPa and 0.0002114 kPa
434.18 K | – | 0.0002433 kPa and 0.0002441 kPa
436.19 K | – | 0.0002898 kPa and 0.000293 kPa and 0.0002878 kPa
438.26 K | – | 0.0003477 kPa and 0.0003523 kPa and 0.0003443 kPa
440.19 K | – | 0.0004064 kPa and 0.0003929 kPa
442.17 K | – | 0.000473 kPa and 0.000486 kPa
444.26 K | – | 0.0005785 kPa and 0.0005761 kPa
446.19 K | – | 0.0006629 kPa and 0.0006749 kPa and 0.0006616 kPa
448.22 K | – | 0.0007985 kPa and 0.0007997 kPa and 0.0007669 kPa
450.28 K | – | 0.0009283 kPa and 0.0009382 kPa
